Activity calls are given as the source filed them. No cut-off for these calls is given here.
Tests used:
Format in all cases: functional
Details in all cases: for zone of inhibition at 5000 µg/mL: read-out: DIZ
Bacillus subtilis = assay: Antibacterial activity against gram-positive Bacillus subtilis at 5 mg/ml after 24 hrs by well diffusion method
Escherichia coli = assay: Antibacterial activity against gram-negative Escherichia coli at 5 mg/ml after 24 hrs by well diffusion method
Bacillus mycoides = assay: Antibacterial activity against gram-positive Bacillus mycoides at 5 mg/ml after 24 hrs by well diffusion method
Pseudomonas aeruginosa = assay: Antibacterial activity against gram-negative Pseudomonas aeruginosa at 5 mg/ml after 24 hrs by well diffusion method

Row | SMILES | zone of inhibition at 5000 µg/mL (Bacillus subtilis) [mm] | zone of inhibition at 5000 µg/mL (Escherichia coli) [mm] | zone of inhibition at 5000 µg/mL (Bacillus mycoides) [mm] | zone of inhibition at 5000 µg/mL (Pseudomonas aeruginosa) [mm] | diameter of the inhibition zone (DIZ) (Bacillus subtilis) | diameter of the inhibition zone (DIZ) (Escherichia coli) | diameter of the inhibition zone (DIZ) (Bacillus mycoides) | diameter of the inhibition zone (DIZ) (Pseudomonas aeruginosa)
1 | Cc1ccc(-c2c[nH]c3c2c(=O)n(C)c(=O)n3C)cc1 | 20 | 15 | 12 | 20 | – | – | – | –
2 | Cn1c(=O)c2c(-c3ccccc3)c[nH]c2n(C)c1=O | – | – | – | – | inactive | inactive | inactive | inactive
3 | Cn1c(=O)c2c(-c3ccc(Cl)cc3)c[nH]c2n(C)c1=O | – | – | – | – | inactive | inactive | inactive | inactive
4 | Cn1c(=O)c2c(-c3c[nH]c4ccccc34)c[nH]c2n(C)c1=O | 20 | 12 | – | 20 | – | – | inactive | –
5 | Cn1c(=O)c2c(-c3cccc4ccccc34)c[nH]c2n(C)c1=O | 18 | 14 | 17 | 20 | – | – | – | –
6 | Cn1c(=O)c2c(-c3ccco3)c[nH]c2n(C)c1=O | 20 | 12 | – | 18 | – | – | inactive | –
7 | Cn1c(=O)c2c(-c3cccs3)c[nH]c2n(C)c1=O | 20 | 13 | 13 | 20 | – | – | – | –
8 | CN(C)c1ccc(-c2c[nH]c3c2c(=O)n(C)c(=O)n3C)cc1 | 15 | 11 | 12 | 20 | – | – | – | –
9 | COc1ccc(-c2c[nH]c3c2c(=O)n(C)c(=O)n3C)cc1 | – | – | – | – | inactive | inactive | inactive | inactive
10 | Cn1c(=O)c2c(-c3ccc(O)cc3)c[nH]c2n(C)c1=O | – | – | – | – | inactive | inactive | inactive | inactive

Reference: ChEMBL document CHEMBL3751742, “A one pot, two-step synthesis of 5-arylpyrrolo[2,3-d]pyrimidines and screening of their preliminary antibacterial properties” (2016)
